# Experiment: lactamisation (head-to-tail or side-chain-to-tail) of unprotected peptide acyl azide (from hydrazide, 20 equiv NaNO2, pH 3, -15 C, then NaHCO3 to pH ~7), MeCN cosolvent
# Conditions: aq phosphate buffer (6 M GdmCl) diluted with 2 vol 50% MeCN/water, 2.2 mM, 2 steps
structure (smiles),measurement,setting,value
C=CC[C@@H]1NC(=O)[C@H](CC(C)C)NC(=O)[C@H](CC(C)C)N(C)C(=O)[C@H](C)NC(=O)[C@H](Cc2ccc(O)c([N+](=O)[O-])c2)NC(=O)[C@H](CC(C)C)N(C)C(=O)[C@H](Cc2cn(C)c3ccccc23)NC1=O [H-Leu-allylGly-Trp(1-Me)-N-Me-Leu-Tyr(3-NO2)-Ala-N-Me-Leu-N3],"ring closure, conversion by HPLC","from C=CC[C@H](NC(=O)[C@@H](N)CC(C)C)C(=O)N[C@@H](Cc1cn(C)c2ccccc12)C(=O)N(C)[C@@H](CC(C)C)C(=O)N[C@@H](Cc1ccc(O)c([N+](=O)[O-])c1)C(=O)N[C@@H](C)C(=O)N(C)[C@@H](CC(C)C)C(=O)N=[N+]=[N-], 21-membered ring, 1.35 h",20%
CC(C)C[C@H]1C(=O)N[C@@H](C)C(=O)N[C@@H](C)C(=O)N(C)[C@@H](CC(C)C)C(=O)N[C@@H](C)C(=O)NCC(=O)N[C@@H](C)C(=O)N1C [H-Ala-N-Me-Leu-Ala-Ala-N-Me-Leu-Ala-Gly-N3],"ring closure, conversion by HPLC","from CC(C)C[C@@H](C(=O)N[C@@H](C)C(=O)N[C@@H](C)C(=O)N(C)[C@@H](CC(C)C)C(=O)N[C@@H](C)C(=O)NCC(=O)N=[N+]=[N-])N(C)C(=O)[C@H](C)N, 21-membered ring, 0.35 h",90%
CC(=O)N[C@@H](Cc1ccccc1)C(=O)N[C@H]1CCCNC(=O)[C@H](CCCNC(=N)N)NC(=O)[C@H](Cc2c[nH]c3ccccc23)NC(=O)[C@@H](Cc2ccc(O)cc2)NC(=O)[C@@H]2CCCN2C1=O [Ac-Phe-Orn(cyclises via side chain)-Pro-D-Tyr-Trp-Arg-N3],"ring closure, conversion by HPLC","from CC(=O)N[C@@H](Cc1ccccc1)C(=O)N[C@@H](CCCN)C(=O)N1CCC[C@H]1C(=O)N[C@H](Cc1ccc(O)cc1)C(=O)N[C@@H](Cc1c[nH]c2ccccc12)C(=O)N[C@@H](CCCNC(=N)N)C(=O)N=[N+]=[N-], 18-membered ring, 0.35 h",95%
C=CC[C@@H]1NC(=O)[C@H](CC(C)C)NC(=O)[C@H](CC(C)C)N(C)C(=O)[C@H](C)NC(=O)[C@H](Cc2ccc(O)c([N+](=O)[O-])c2)NC(=O)[C@H](CC(C)C)NC(=O)[C@H](Cc2cn(C(C)(C)C=C)c3ccccc23)NC1=O,"ring closure, conversion by HPLC","from C=CC[C@H](NC(=O)[C@H](CC(C)C)NC(=O)[C@H](CC(C)C)N(C)C(=O)[C@H](C)NC(=O)[C@H](Cc1ccc(O)c([N+](=O)[O-])c1)NC(=O)[C@H](CC(C)C)NC(=O)[C@@H](N)Cc1cn(C(C)(C)C=C)c2ccccc12)C(=O)N=[N+]=[N-], 21-membered ring, 0.27 h",< 50%
CCCCC(C)CCC(=O)N[C@@H](CCN)C(=O)N[C@H](C(=O)N[C@@H](CCN)C(=O)N[C@H]1CCNC(=O)[C@H]([C@@H](C)O)NC(=O)[C@H](CCN)NC(=O)[C@H](CCN)NC(=O)[C@H](CC(C)C)NC(=O)[C@@H](CC(C)C)NC(=O)[C@H](CCN)NC1=O)[C@@H](C)O (stereo partly shown),"ring closure, conversion by HPLC","from CCCCC(C)CCC(=O)N[C@@H](CCN)C(=O)N[C@H](C(=O)N[C@@H](CCN)C(=O)N[C@@H](CCN)C(=O)N[C@@H](CCN)C(=O)N[C@H](CC(C)C)C(=O)N[C@@H](CC(C)C)C(=O)N[C@@H](CCN)C(=O)N[C@@H](CCN)C(=O)N[C@H](C(=O)N=[N+]=[N-])[C@@H](C)O)[C@@H](C)O, 23-membered ring, 0.017 h",56%
CC(C)C[C@@H]1NC(=O)[C@H](CCCN)NC(=O)[C@H](C(C)C)NC(=O)[C@@H]2CCCN2C(=O)[C@@H](Cc2ccccc2)NC(=O)[C@H](CC(C)C)NC(=O)[C@H](CCCN)NC(=O)[C@H](C(C)C)NC(=O)[C@@H]2CCCN2C(=O)[C@@H](Cc2ccccc2)NC1=O [H-D-Phe-Pro-Val-Orn-Leu-D-Phe-Pro-Val-Orn-Leu-N3],"ring closure, conversion by HPLC","from CC(C)C[C@H](NC(=O)[C@H](CCCN)NC(=O)[C@@H](NC(=O)[C@@H]1CCCN1C(=O)[C@@H](Cc1ccccc1)NC(=O)[C@H](CC(C)C)NC(=O)[C@H](CCCN)NC(=O)[C@@H](NC(=O)[C@@H]1CCCN1C(=O)[C@H](N)Cc1ccccc1)C(C)C)C(C)C)C(=O)N=[N+]=[N-], 30-membered ring, 0.33 h",92%
CC(C)C[C@@H]1NC(=O)[C@H](Cc2ccc(O)cc2)NC(=O)[C@@H]2CCCN2C(=O)CNC(=O)[C@H](C)NC1=O [H-Gly-Pro-Tyr-Leu-Ala-N3],"ring closure, conversion by HPLC","from CC(C)C[C@H](NC(=O)[C@H](Cc1ccc(O)cc1)NC(=O)[C@@H]1CCCN1C(=O)CN)C(=O)N[C@@H](C)C(=O)N=[N+]=[N-], 15-membered ring, 0.35 h",77%
CSCC[C@@H]1NC(=O)[C@H](C(C)C)NC(=O)[C@H](CC(C)C)NC(=O)CNC(=O)[C@@H]2CCCN2C(=O)[C@H](C(C)C)NC(=O)CNC(=O)[C@H](Cc2ccccc2)NC1=O [H-Phe-Gly-Val-Pro-Gly-Leu-Val-Met-N3],"ring closure, conversion by HPLC","from CSCC[C@H](NC(=O)[C@@H](NC(=O)[C@H](CC(C)C)NC(=O)CNC(=O)[C@@H]1CCCN1C(=O)[C@@H](NC(=O)CNC(=O)[C@@H](N)Cc1ccccc1)C(C)C)C(C)C)C(=O)N=[N+]=[N-], 24-membered ring, 0.35 h",38%
C=CC[C@@H]1NC(=O)[C@H](CC(C)C)NC(=O)[C@H](CC(C)C)N(C)C(=O)[C@H](C)NC(=O)[C@H](Cc2ccc(O)c([N+](=O)[O-])c2)NC(=O)[C@H](CC(C)C)N(C)C(=O)[C@H](Cc2cn(C)c3ccccc23)NC1=O [H-allylGly-Trp(1-Me)-N-Me-Leu-Tyr(3-NO2)-Ala-N-Me-Leu-Leu-N3],"ring closure, conversion by HPLC","from C=CC[C@H](N)C(=O)N[C@@H](Cc1cn(C)c2ccccc12)C(=O)N(C)[C@@H](CC(C)C)C(=O)N[C@@H](Cc1ccc(O)c([N+](=O)[O-])c1)C(=O)N[C@@H](C)C(=O)N(C)[C@@H](CC(C)C)C(=O)N[C@@H](CC(C)C)C(=O)N=[N+]=[N-], 21-membered ring, 0.35 h",59%
CC[C@H](C)[C@@H]1NC(=O)CNC(=O)[C@H](CO)NC(=O)[C@@H]2CCCN2C(=O)[C@H](C(C)C)NC(=O)[C@@H]2CCCN2C(=O)CNC(=O)[C@H](Cc2ccccc2)NC1=O [H-Pro-Val-Pro-Ser-Gly-Ile-Phe-Gly-N3],"ring closure, conversion by HPLC","from CC[C@H](C)[C@H](NC(=O)CNC(=O)[C@H](CO)NC(=O)[C@@H]1CCCN1C(=O)[C@@H](NC(=O)[C@@H]1CCCN1)C(C)C)C(=O)N[C@@H](Cc1ccccc1)C(=O)NCC(=O)N=[N+]=[N-], 24-membered ring, 1.67 h",58%
C=CC[C@@H]1NC(=O)[C@H](CC(C)C)NC(=O)[C@H](CC(C)C)NC(=O)[C@H](C)NC(=O)[C@H](Cc2ccc(O)c([N+](=O)[O-])c2)NC(=O)[C@H](CC(C)C)NC(=O)[C@H](Cc2cn(C(C)(C)C=C)c3ccccc23)NC1=O,"ring closure, conversion by HPLC","from C=CC[C@H](NC(=O)[C@H](CC(C)C)NC(=O)[C@H](CC(C)C)NC(=O)[C@H](C)NC(=O)[C@H](Cc1ccc(O)c([N+](=O)[O-])c1)NC(=O)[C@H](CC(C)C)NC(=O)[C@@H](N)Cc1cn(C(C)(C)C=C)c2ccccc12)C(=O)N=[N+]=[N-], 21-membered ring",0%
C[C@@H]1NC(=O)[C@H](C)NC(=O)[C@@H]2CCCN2C(=O)[C@H](C)NC(=O)[C@H](C)NC(=O)[C@@H]2CCCN2C(=O)[C@H](C)NC1=O [H-Ala-Pro-Ala-Ala-Pro-Ala-Ala-N3],"ring closure, conversion by HPLC","from C[C@H](N)C(=O)N1CCC[C@H]1C(=O)N[C@@H](C)C(=O)N[C@@H](C)C(=O)N1CCC[C@H]1C(=O)N[C@@H](C)C(=O)N[C@@H](C)C(=O)N=[N+]=[N-], 21-membered ring, 0.68 h",80%
C[C@@H]1NC(=O)CN(C)C(=O)[C@H](C)NC(=O)[C@H](C)NC(=O)CN(C)C(=O)[C@H](C)NC(=O)[C@H](C)NC1=O [H-Ala-Sar-Ala-Ala-Sar-Ala-Ala-N3],"ring closure, conversion by HPLC","from C[C@H](N)C(=O)N(C)CC(=O)N[C@@H](C)C(=O)N[C@@H](C)C(=O)N(C)CC(=O)N[C@@H](C)C(=O)N[C@@H](C)C(=O)N=[N+]=[N-], 21-membered ring, 0.35 h",96%
CC(C)C[C@@H]1NC(=O)[C@H](CCCN)NC(=O)[C@H](C(C)C)NC(=O)[C@H](Cc2ccc(O)cc2)NC(=O)[C@H](CCC(N)=O)NC(=O)[C@H](CC(N)=O)NC(=O)[C@@H](Cc2ccccc2)NC(=O)[C@H](Cc2ccccc2)NC(=O)[C@@H]2CCCN2C(=O)[C@@H](Cc2ccccc2)NC1=O [H-D-Phe-Pro-Phe-D-Phe-Asn-Gln-Tyr-Val-Orn-Leu-N3],"ring closure, conversion by HPLC","from CC(C)C[C@H](NC(=O)[C@H](CCCN)NC(=O)[C@@H](NC(=O)[C@H](Cc1ccc(O)cc1)NC(=O)[C@H](CCC(N)=O)NC(=O)[C@H](CC(N)=O)NC(=O)[C@@H](Cc1ccccc1)NC(=O)[C@H](Cc1ccccc1)NC(=O)[C@@H]1CCCN1C(=O)[C@H](N)Cc1ccccc1)C(C)C)C(=O)N=[N+]=[N-], 30-membered ring, 0.33 h",95%
CC(C)C[C@H]1C(=O)N[C@@H](C)C(=O)N[C@@H](C)C(=O)N[C@@H](C)C(=O)N(C)[C@@H](CC(C)C)C(=O)N[C@@H](C)C(=O)N[C@@H](C)C(=O)N1C [H-Ala-N-Me-Leu-Ala-Ala-N-Me-Leu-Ala-Ala-N3],"ring closure, conversion by HPLC","from CC(C)C[C@@H](C(=O)N[C@@H](C)C(=O)N[C@@H](C)C(=O)N(C)[C@@H](CC(C)C)C(=O)N[C@@H](C)C(=O)N[C@@H](C)C(=O)N=[N+]=[N-])N(C)C(=O)[C@H](C)N, 21-membered ring, 0.35 h",89%
C=CC[C@@H]1NC(=O)[C@H](CC(C)C)NC(=O)[C@H](CC(C)C)NC(=O)[C@H](C)NC(=O)[C@H](Cc2ccc(O)c([N+](=O)[O-])c2)NC(=O)[C@H](CC(C)C)N(C)C(=O)[C@H](Cc2cn(C(C)(C)C=C)c3ccccc23)NC1=O,"ring closure, conversion by HPLC","from C=CC[C@H](NC(=O)[C@H](CC(C)C)NC(=O)[C@H](CC(C)C)NC(=O)[C@H](C)NC(=O)[C@H](Cc1ccc(O)c([N+](=O)[O-])c1)NC(=O)[C@H](CC(C)C)N(C)C(=O)[C@@H](N)Cc1cn(C(C)(C)C=C)c2ccccc12)C(=O)N=[N+]=[N-], 21-membered ring, 0.27 h",< 50%

# Source: publication PMC11191687
